Results published in ChEMBL document CHEMBL4177573 (Bioorg Med Chem, 2017).
Activity calls are given as the source filed them. No cut-off for these calls is given here.

Key:
Mus musculus [1] = assay: Anorectic activity in DIO C57BL/6J mouse assessed as reduction in cumulative food intake at 0.03 mg/kg, sc for 2 weeks dosed as continuous administration by infusion of osmotic pumps relative to 0.3 mg/kg/day, sc PYY(3-36); assay type: functional
[2] = Total clearance in C57BL/6J mouse at 1 mg/kg, iv measured during 5 mins to 24 hrs by LC/MS/MS method; assay type: ADME, organism-based; conditions: in vivo
Mus musculus [3] = assay: Antiobesity activity in DIO C57BL/6J mouse assessed as reduction in body weight at 0.03 mg/kg, sc for 2 weeks dosed as continuous administration by infusion of osmotic pumps relative to untreated control; assay type: functional; conditions: 336 h
[4] = Volume of distribution at steady state in C57BL/6J mouse at 1 mg/kg, iv measured during 5 mins to 24 hrs by LC/MS/MS method; assay type: ADME, organism-based; conditions: in vivo, read-out: Vdss
[5] = MRT in C57BL/6J mouse at 1 mg/kg, iv measured during 5 mins to 24 hrs by LC/MS/MS method; assay type: ADME, organism-based; conditions: in vivo
Mus musculus [6] = assay: Anorectic activity in C57BL/6J mouse assessed as inhibition of food intake at 0.03 mg/kg/day, sc for 3 days dosed as continuous administration by infusion using osmotic pump; assay type: functional; conditions: 72 h
[7] = biological target: T1, Neuropeptide Y receptor type 1 (Homo sapiens, UniProt P25929); assay: Agonist activity at human neuropeptide Y1 receptor by [35S]GTPgammaS binding assay; assay type: functional
T1 sequence (P25929 whole entry): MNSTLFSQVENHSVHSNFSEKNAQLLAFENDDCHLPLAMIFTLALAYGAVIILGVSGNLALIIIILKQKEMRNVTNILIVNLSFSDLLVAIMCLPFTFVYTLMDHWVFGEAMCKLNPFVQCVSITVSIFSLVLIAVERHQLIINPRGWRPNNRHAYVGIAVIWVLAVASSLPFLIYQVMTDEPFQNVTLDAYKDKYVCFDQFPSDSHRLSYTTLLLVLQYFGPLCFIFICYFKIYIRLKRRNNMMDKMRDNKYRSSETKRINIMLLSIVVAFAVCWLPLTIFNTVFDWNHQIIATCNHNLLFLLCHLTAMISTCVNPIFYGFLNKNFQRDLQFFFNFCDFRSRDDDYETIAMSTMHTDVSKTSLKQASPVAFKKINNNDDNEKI

Mus musculus [8] = assay: Antiobesity activity in DIO C57BL/6J mouse assessed as reduction in body weight at 0.01 mg/kg, sc for 2 weeks dosed as continuous administration by infusion of osmotic pumps relative to untreated control; assay type: functional; parameters: scale not given: the % may be the effect or the level left
Mus musculus [9] = assay: Antiobesity activity in DIO C57BL/6J mouse assessed as reduction in body weight at 1 mg/kg, sc […] for 2 weeks dosed by infusion of osmotic pumps; assay type: functional; conditions: 336 h
Mus musculus [10] = assay: Anorectic activity in DIO C57BL/6J mouse assessed as reduction in cumulative food intake at 0.03 mg/kg, sc for 2 weeks dosed as continuous administration by infusion of osmotic pumps relative to untreated control; assay type: functional, organism-based
Mus musculus [11] = assay: Anorectic activity in C57BL/6J mouse assessed as inhibition of food intake at 0.03 to 1 mg/kg/day, sc for 3 days dosed as continuous administration by infusion using osmotic pump; assay type: functional, organism-based
[12] = biological target: T2, Neuropeptide Y receptor type 2 (Homo sapiens, UniProt P49146); assay: Displacement of [125I]-PYY from human neuropeptide Y2 receptor expressed in CHO cell membranes incubated for 60 mins by TopCount based method
T2 sequence (P49146 whole entry): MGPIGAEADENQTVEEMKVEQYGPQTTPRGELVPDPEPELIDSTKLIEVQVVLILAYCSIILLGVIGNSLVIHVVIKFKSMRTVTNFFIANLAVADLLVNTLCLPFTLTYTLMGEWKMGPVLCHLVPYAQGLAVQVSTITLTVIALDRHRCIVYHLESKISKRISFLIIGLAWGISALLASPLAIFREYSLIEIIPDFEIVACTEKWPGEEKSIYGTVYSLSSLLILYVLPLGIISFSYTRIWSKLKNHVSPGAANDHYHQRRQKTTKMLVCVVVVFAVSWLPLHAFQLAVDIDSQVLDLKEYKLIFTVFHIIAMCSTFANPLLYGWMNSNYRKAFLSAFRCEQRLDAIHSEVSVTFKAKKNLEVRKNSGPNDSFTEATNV

[13] = biological target: T3, Neuropeptide Y receptor type 2 (Rattus norvegicus, UniProt Q9ERC0); assay: Agonist activity at rat neuropeptide Y2 receptor by [35S]GTPgammaS binding assay; assay type: functional
T3 sequence (Q9ERC0 whole entry): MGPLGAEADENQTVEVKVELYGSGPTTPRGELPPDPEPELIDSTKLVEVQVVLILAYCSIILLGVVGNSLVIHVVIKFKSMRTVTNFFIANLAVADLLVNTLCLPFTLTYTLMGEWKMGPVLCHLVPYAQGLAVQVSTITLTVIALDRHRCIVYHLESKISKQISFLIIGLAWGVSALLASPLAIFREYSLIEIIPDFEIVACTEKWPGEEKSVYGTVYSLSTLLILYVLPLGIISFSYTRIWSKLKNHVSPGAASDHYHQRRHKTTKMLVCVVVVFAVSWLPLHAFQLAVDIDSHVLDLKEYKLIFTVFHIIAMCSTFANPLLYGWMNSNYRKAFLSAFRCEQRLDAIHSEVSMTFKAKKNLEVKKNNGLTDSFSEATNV

Mus musculus [14] = assay: Anorectic activity in overnight fasted Y2R-/- C57BL/6J mouse assessed as inhibition of food intake at 10 nmol/kg, sc followed by re-feeding post dose and measured for 2 hrs; assay type: functional, organism-based
[15] = AUC (0 to 24 hrs) in C57BL/6J mouse at 1 mg/kg, iv measured during 5 mins to 24 hrs by LC/MS/MS method; assay type: ADME, organism-based; parameters: dose 1 mg/kg, time < 24 hr, route intravenous; conditions: in vivo
[16] = Tmax in C57BL/6J mouse at 1 mg/kg, sc measured during 5 mins to 24 hrs by LC/MS/MS method; assay type: ADME, organism-based; conditions: in vivo
Mus musculus [17] = assay: Anorectic activity in C57BL/6J mouse assessed as inhibition of food intake at 0.3 mg/kg/day, sc dosed as […] and measured after 12 hrs; assay type: functional
[18] = Cmax in C57BL/6J mouse at 1 mg/kg, sc measured during 5 mins to 24 hrs by LC/MS/MS method; assay type: ADME, organism-based; parameters: dose 1 mg/kg, route subcutaneous; conditions: in vivo
[19] = AUC (0 to 24 hrs) in C57BL/6J mouse at 1 mg/kg, sc measured during 5 mins to 24 hrs by LC/MS/MS method; assay type: ADME, organism-based; parameters: time < 24 hr, dose 1 mg/kg, route subcutaneous; conditions: in vivo
[20] = MRT in C57BL/6J mouse at 1 mg/kg, sc measured during 5 mins to 24 hrs by LC/MS/MS method; assay type: ADME, organism-based; conditions: in vivo
Mus musculus [21] = assay: Drug level in C57BL/6J mouse at 1 mg/kg, iv measured during 5 mins to 24 hrs by LC/MS/MS method; assay type: ADME, organism-based; conditions: in vivo, read-out: Drug uptake
Mus musculus [22] = assay: Antiobesity activity in DIO C57BL/6J mouse assessed as reduction in liver weight at 0.003 to 0.03 mg/kg, sc for 2 weeks dosed as continuous administration by infusion of osmotic pumps relative to untreated control; assay type: functional, organism-based
Mus musculus [23] = assay: Anorectic activity in overnight fasted C57BL/6J mouse assessed as inhibition of food intake at 10 nmol/kg, sc followed by re-feeding post dose and measured for 2 hrs; assay type: functional, organism-based

clearance [2]: 14.2 mL/min/kg | Vd [4]: 0.293 L/kg | MRT [5]: 21 min | EC50 [7]: > 1000 nM | IC50 [12]: 0.31 nM | EC50 [13]: 0.038 nM | AUC(0-t) at 24 h [15]: 0.577 µM·h | Tmax [16]: 10.2 min | Cmax [18]: 452 nM | AUC(0-t) at 24 h [19]: 0.347 µM·h | MRT [20]: 33.6 min | concentration (Mus musculus [21]): 2060 nM
Structure (SMILES): CC[C@](C)(NC(=O)[C@H]1C[C@H](O)CN1C(=O)[C@H](CO)NC(=O)c1c[nH]cn1)C(=O)N[C@@H](Cc1ccncc1)C(=O)N[C@@H](CC1CCCCC1)C(=O)N[C@@H](CC(C)(C)C)C(=O)N[C@@H](CC(N)=O)C(=O)N[C@@H](CCCCN)C(=O)NC(C)(C)C(=O)N[C@H](C(=O)N[C@@H](CCCNC(=N)N)C(=O)N[C@@H](CCC(N)=O)C(=O)N[C@@H](CCCNC(=N)N)C(=O)N[C@@H](CC1CCCCC1)C(N)=O)[C@@H](C)O
fold change (FC) (Mus musculus [1]): 30 | inhibition in vivo at 0.03 mg/kg (Mus musculus [3]): 15.1% | inhibition in vivo at 0.03 mg/kg/day (Mus musculus [6]): 52% | Activity (Mus musculus [8]): 8.3% | inhibition in vivo at 1 mg/kg (Mus musculus [9]): 7.6% | Activity (Mus musculus [10]): Active | Activity (Mus musculus [11]): Dose-dependent effect | Activity (Mus musculus [14]): inactive | inhibition in vivo at 0.3 mg/kg/day (Mus musculus [17]): 41% | Activity (Mus musculus [22]): Active | Activity (Mus musculus [23]): Active
